“Also recorded” adds a separate entry of the source.
Key:
[1] = system: muscle nociceptors (ASIC3-positive muscle afferent DRG neurons expressing ISP-O); assay: Whole-cell patch-clamp recording of outward currents in muscle afferent DRG neurons; format: cell-based, mice; conditions: for induction of outward current in ASIC3/SP-expressing muscle DRG neurons: SP-sensitive muscle nociceptors; for inhibition of T1-11-induced outward current (IT1-11) by adenosine receptor antagonists: muscle nociceptors
Method: The digested DRG neurons were washed with fetal calf serum (FCS)-free DMEM or DMEM containing 10% FCS during each treatment. Fully digested DRGs were triturated and plated on poly-L-lysine-coated cover slides. Cell cultures were maintained in a 5% CO2 incubator at 37° C.
Whole-cell patch-clamp recordings of muscle-afferent neurons involved use of Axopatch MultiClamp 700B (Axon Instruments). Neurons with membrane potential >−40 mV were discarded. The bridge was balanced in current-clamp recording, and the series resistance was compensated 70% in voltage-clamp recording with […] 700B compensation circuitry. All experiments were performed at room temperature (21-25° C.) and completed within 30 hr post-seeding. Unless specifically mentioned, the patch pipettes were prepared in 1-5 MΩ and filled with internal solution containing (in mM) 100 KCl, 2 Nae-ATP, 0.3 Na3-GTP, 10 EGTA, 5 MgCl2, and 40 HEPES, adjusted to pH 7.4 with KOH. Recording cells were superfused in artificial cerebrospinal fluid (ACSF) by control with gravitational force. The ACSF contained (in mM) 130 NaCl, 5 KCl, 1 MgCl2, 2 CaCl2, 10 glucose, and 20 HEPES, adjusted to pH 7.4 with NaOH. Osmolarity was adjusted to 300 mOsm. The acidic ACSF was titrated to pH 6.8 by […]. […] If not specifically mentioned, drugs listed above were from Sigma Chemical (St. Louis, Mo.).
The procedure was repeated at least 2 times to ensure consistent data. […] ACSF-containing compounds were superfused for 1 min to ensure complete replacement of previous perfusate between treatments. […] A recording pipette containing 1 mM GDP-β-S was used in GTP dialysis. The GABA-B current was induced by 100 μM Baclofen at the beginning of dialysis (0, 1 and 2 min after whole-cell patch clamp). Then, Baclofen was used to re-stimulate the dialyzed neurons after 10-min dialysis (10, 11 and 12 min after whole-cell patch clamp).

[2] = system: acid(ASIC3)-induced chronic muscle pain; assay: Acid-induced chronic muscle pain model (repeated intramuscular acid injection, von Frey test); format: in vivo, mice; conditions: for acid-induced hyperalgesia, co-injection with acidic saline: 1 nmole, i.m.
Excerpt: Adult (8- to 12-wk-old) C57/BL6 mice were used. All procedures followed the Guide for the Use of Laboratory Animals (National Academy Press, Washington D.C., USA) and were approved by the Institutional Animal Care and Use Committee of Academia Sinica. We aimed to minimize the number of animals used and their suffering without compromising the quality of the experiments. The generation and genotyping of Tac1^−/− mice and Asic3^−/− mice were as described. Both null mutant mice were backcrossed to C57/BL6 for 10 generations to establish a congenic strain. Congenic Tac1^−/− Asic3^−/− mice were offspring of Tacl^+/− and Asic3^+/− intercrosses.
Mice received an intramuscular acid injection in the gastrocnemius muscle (GM) containing 20 μl acid saline (pH 4.0) with or without (Sar^9, Met(O2)^11)-substance P (SP; 4, 10, or 40 μM) or 100 μM RP67580 or 200 μM XE991. Mechanical hyperalgesia was assessed by applying a 0.2-mN von Frey filament to the plantar surface of both hind paws of mice. Mice were acclimatized in an acrylic cubicle for 60 min before testing. A positive response was defined as the foot lifting when the von Frey filament was applied. For each paw, the filament was applied 5 times at 30-sec intervals. Responses of the paw to mechanical stimuli were measured before injection and at 4 and 24 hr and 5 days after the first acid injection (day 0) and at 4, 24, and 72 hr and 1 week after the second acid injection (day 5). For single-injection experiments, responses to mechanical stimuli were measured before the injection, at 4 hr and at 1, 3, 5, 7, 9, 11, 13, 15 and 22 days after the injection or at 4, 24, 48 hr and 7 and 14 days after the injection. NK1-selective agonist ((Sar^9, Met(O2)^11)—SP) was from Sigma Chemical (St. Louis, Mo.). NK1-selective antagonist (RP67580) and XE991 were from Tocris (Avonmouth, UK). The experimenters were blinded to the experimental manipulations. The person who conducted von Frey test had no information of the mouse genotypes or drug injections.

ASIC3 = assay: Whole-cell patch clamp of acid-induced current in CHO cells transfected with ASIC3; format: cell-based
ICS-induced pain = assay: Intermittent cold stress (ICS) mouse model of fibromyalgia, von Frey test; format: in vivo, mice; conditions: SM-substance P 0.6 mg/kg alone
Method: Mechanical hyperalgesia was assessed by applying a 0.2 mN von Frey filament to the plantar surface of both hind paws. For each paw, the filament was applied for 5 times at 30-s intervals.
To induce fibromyalgia-like symptoms, mice were treated with intermittent cold stress, which produces long-lasting (more than 2 weeks) thermal hyperalgesia and mechanical allodynia, predominantly in females. Method: Mice were placed on stainless mesh plate in a cold room at 4° C. overnight (from 4:30 pm to 10:00 am), followed by intermittent cold stress with environment temperatures alternating between 24 and 4° C. every 30 min, from 10:00 am to 4:30 pm. These procedures were repeated twice. On day 3, the mice were adapted to 24 C for 1 h before behavioral testing.
The second fibromyalgia model is developed by Ueda's group, in which mice were treated with intermittent cold stress for 2 days (Nishiyori & Ueda, 2008). Mice treated with intermittent cold stress will develop long-lasting (>2 weeks) mechanical and thermal hyperalgesia. Analgesic effect of T1-11 was tested in these mice 5 day after intermittent cold stress (ICS). […] Moreover, we found T1-11 and substance P have synergistic effect in treating the ICS-induced pain.

## COc1ccccc1CC(=N)N1C[C@@H]2C(=O)CCC(c3ccccc3)(c3ccccc3)[C@@H]2C1 [RP67580, reference compound]
[1]; RP67580 (10 n=17)
  inhibition of IT1-11 by NK1 receptor antagonist: inhibited IT1-11

## OC[C@H]1O[C@@H](n2cnc3c(NCCc4c[nH]c5ccccc45)ncnc32)C(O)C1O (stereo in doubt) [JMF1907]
[1]
  induction of outward current in ASIC3/SP-expressing muscle DRG neurons: can also induce outward currents

## O=C(Cc1ccccc1)Nc1nc2ccc(Cl)cc2c2nc(-c3ccco3)nn12 [MRS1220, reference compound]
[2]; MRS1220 200 pmole i.m.
  effect of antagonist on the analgesic effect of T1-11: abolished the analgesic effect of T1-11
[1]
  inhibition of T1-11-induced outward current (IT1-11) by adenosine receptor antagonists: reversely inhibited

## CCNC(=O)[C@H]1O[C@@H](n2cnc3c(N)nc(NCCc4ccc(CCC(=O)O)cc4)nc32)C(O)C1O (stereo in doubt) [CGS21680, reference compound]
[2]
  acid-induced hyperalgesia, co-injection with acidic saline: partially inhibited acid-induced hyperalgesia; also recorded: showed partial analgesic effect
[1]; CGS21680 high dose 10 μM
  outward current in A2A−/− muscle afferent DRG neurons: induces an outward current
[1]
  induction of outward current in ASIC3/SP-expressing muscle DRG neurons: can also induce outward currents

## CNC(=O)[C@H]1O[C@@H](n2cnc3c(NCc4cccc(I)c4)ncnc32)[C@H](O)[C@@H]1O [IB-MECA]
[2]
  acid-induced hyperalgesia, co-injection with acidic saline: has no effect on acid-induced hyperalgesia; also recorded: did not have analgesic effect

## APETx2
[2]; APETx2 2 pmole at the first acid injection
  acid-induced hyperalgesia, co-injection of acid and APETx2: abolished the transient hyperalgesia and prevented the development of chronic hyperalgesia

## OC[C@H]1O[C@@H](n2cnc3c(NCc4cccc(O)c4)ncnc32)C(O)C1O (some centres unmarked) [JMF1998]
[1]
  induction of outward current in ASIC3/SP-expressing muscle DRG neurons: can also induce outward currents

## OC[C@H]1O[C@@H](n2cnc3c(NCc4ccc(Br)cc4)ncnc32)C(O)C1O (some centres unmarked) [JMF2665]
[1]
  induction of outward current in ASIC3/SP-expressing muscle DRG neurons: can also induce outward currents

## O=C(O)c1ccccc1O [salicylic acid, reference compound]
ASIC3
  acid-induced current in CHO cells transfected with ASIC3: blocked

## (Sar^9, Met(O2)^11)-substance P [SM-substance P, reference compound]
ICS-induced pain
  analgesic effect on ICS-treated mice, SM-substance P alone: did not show analgesic effect

## CCCn1cc2c(nc(NC(=O)Nc3ccc(OC)cc3)n3nc(-c4ccco4)nc23)n1 [MRE3008F20, reference compound]
[1]
  inhibition of T1-11-induced outward current (IT1-11) by adenosine receptor antagonists: reversely inhibited
